# T1: Solute carrier family 22 member 2 (Rattus norvegicus, UniProt Q9R0W2)
# T1 sequence (Q9R0W2 whole entry): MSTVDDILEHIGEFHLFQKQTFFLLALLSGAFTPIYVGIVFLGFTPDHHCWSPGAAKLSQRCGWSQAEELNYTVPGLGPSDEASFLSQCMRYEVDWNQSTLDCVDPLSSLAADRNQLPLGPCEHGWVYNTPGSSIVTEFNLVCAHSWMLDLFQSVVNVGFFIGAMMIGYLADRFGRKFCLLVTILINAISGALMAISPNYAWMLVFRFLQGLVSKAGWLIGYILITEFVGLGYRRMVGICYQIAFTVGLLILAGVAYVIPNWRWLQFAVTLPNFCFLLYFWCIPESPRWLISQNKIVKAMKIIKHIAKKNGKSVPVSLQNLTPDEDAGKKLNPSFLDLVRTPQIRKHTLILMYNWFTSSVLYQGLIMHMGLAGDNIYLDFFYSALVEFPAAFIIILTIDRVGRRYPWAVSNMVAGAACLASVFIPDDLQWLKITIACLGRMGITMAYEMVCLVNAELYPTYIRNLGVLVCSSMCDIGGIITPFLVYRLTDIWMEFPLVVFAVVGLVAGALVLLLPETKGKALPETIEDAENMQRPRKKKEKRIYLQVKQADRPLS
# B1: Solute carrier family 22 member 2 (Rattus norvegicus) (protein)
# chain: T1 sequence (Q9R0W2 whole entry)
# Experiments:
# [1] = target: T1, Solute carrier family 22 member 2; test: TP_TRANSPORTER: inhibition of TEA uptake (apical to cell) in OCT2-expressing NIH3T3 cells; format: functional, cell-based
# [2] = target: T1, Solute carrier family 22 member 2; test: TP_TRANSPORTER: uptake (apical to cell) in OCT2-expressing NIH3T3 cells; format: functional, cell-based; conditions: mouse
# [3] = substrate: CC[N+](CC)(CC)CC; test: cells, lysate or membranes named
Molecule,Ki [1] [µM],Activity [2],further results
CN/C(=N/CCSCc1nc[nH]c1C)NC#N [CIMETIDINE],198,,
CC[n+]1c(CC2C=C(C)N=C(c3ccccc3)N2C)ccc2ccccc21 (stereo not given) [Cyanine-863],0.861,,
COc1cccc2c1C(=O)c1c(O)c3c(c(O)c1C2=O)C[C@@](O)(C(C)=O)C[C@@H]3O[C@H]1C[C@H](N)[C@H](O)[C@H](C)O1 [DAUNORUBICIN],,substrate [+],
CC[C@]1(O)C[C@@H]2CN(CCc3c([nH]c4ccccc34)[C@@](C(=O)OC)(c3cc4c(cc3OC)N(C)[C@H]3[C@@](O)(C(=O)OC)[C@H](OC(C)=O)[C@]5(CC)C=CCN6CC[C@]43[C@@H]65)C2)C1 [VINBLASTINE],,substrate [+],
B1,,,Km [3]: 141 µM
